PMC11050087, “Polyphenols from Maackia amurensis Heartwood Protect Neuronal Cells from Oxidative Stress and Prevent Herpetic Infection” (International Journal of Molecular Sciences, 2024)
“And” between values parts separate entries of the source, which are not always exact repeats. Equal values may be shown once.

Tests used:
HSV-1 [1] = assay: Virucidal activity, RT-PCR assay (HSV-1 pretreated with compounds); type: cell-based, HSV-1 strain L2; conditions: for virucidal activity against HSV-1 by RT-PCR (in words): 0.1, 1 and 10 µg/mL; for Ct: 72 h; for −ΔCt: vs virus control
Protocol: Vero cells grown on 96-well plates were infected with the virus (100 TCID50/mL), pretreated with polyphenolic compounds at concentrations 0.1, 1 and 10 μg/mL. After 72 h of cell incubation, viral DNA was extracted from the supernatants, and the relative level of HSV-1 DNA was determined using RT-PCR. The effect of polyphenols on the relative level of viral DNA was assessed using the 2^−∆Ct method and reported as fold reduction compared to virus control.
(§1) The HSV-1 strain L2 obtained from N.F. Gamaleya Federal Research Centre for Epidemiology and Microbiology (Moscow, Russia) was grown in Vero cells as previously described.
(§2) We determined the direct inhibitory effect of polyphenolic compounds from M. amurensis heartwood on HSV-1 (virucidal effect). We mixed the virus at an infectious dose (100 TCID50/mL) with polyphenolic compounds (from 0.1 to 100 µg/mL) at a ratio of 1:1 (v/v) and incubated for an hour at 37 °C. Then, we infected the monolayer of Vero cells grown on 96-well plates (1 × 10^4 cells/well) with HSV-1 pretreated with the studied compounds. After 1 h adsorption at 37 °C, the cells were washed with phosphate-buffered saline (PBS) and overlaid by the maintenance medium with 1% FBS. The plates were incubated for 72 h at 37 °C in a CO2-incubator. The cytopathic effect (CPE) inhibition assay and real-time reverse transcription-PCR (RT-PCR) assay were used to evaluate virucidal effect of the tested compounds.
We performed the RT-PCR assay as we previously described in detail in [22]. Briefly, HSV-1 DNA was extracted after incubation from cell supernatants by using the DNA-sorb-AM (K1-12-100-CE) nucleic acid extraction kit (AmpliSens®, Moscow, Russia) according to the manufacturer′s instructions. We treated the supernatants with a lysis solution that contained guanidine chloride (chaotropic agent) in the presence of sorbent (silica particles). As the elution solution was added, the DNA was […] silica particles and separated from the sorbent particles by centrifugation.
We detected the DNA of HSV-1 in the obtained samples using the AmpliSens® HSV I, II-FRT-100F PCR kit (AmpliSens®, Moscow, Russia) on a real-time PCR instrument Rotor-Gene Q (Qiagen, Hilden, Nordrhein-Westfalen, Germany) according to the manufacturer′s instructions. The PCR reaction conditions were the following: initial denaturation at 95 °C for 15 min; then 5 cycles at 95 °C for 5 s, at 60 °C for 20 s, at 72 °C for 15 s; then 40 cycles at 95 °C for 5 s, at 60 °C for 20 s, and at 72 °C for 15 s. A negative sample was used as the amplification control for each run. The threshold cycle number Ct, was measured as the PCR cycle, where the amount of the amplified target reached the threshold value; the Ct values ≥ 37 indicated the absence of the HSV-1 DNA in the samples. We assessed the anti-HSV-1 activity of the studied compounds by the reduction in the viral DNA levels using the 2^−ΔCt method according to Equation (2):(2) ΔCt=Ctcv−Cttv where Ct is the threshold cycle number measured as the PCR cycle, where the amount of the amplified target reached the threshold value, […]

HSV-1 [2] = assay: Virucidal activity, CPE inhibition assay (HSV-1 pretreated with compounds); type: cell-based, HSV-1 strain L2; conditions: CPE assay; for virucidal activity against HSV-1 (in words): virus pretreated with compound
Protocol: The antiviral activity of polyphenols from M. amurensis against HSV-1 was assessed using the cytopathic effect inhibition (CPE) assay. To study the inhibitory effect of polyphenolic compounds directly on the HSV-1 virus (direct virucidal activity), the monolayer of Vero cells grown on 96-well plates (1 × 10^4 cells/well) was infected with the virus (100 TCD50/mL), pretreated with different concentrations of polyphenolic compounds.
as §1, §2
We previously described this method in detail in [22]. We performed the MTT assay to evaluate the antiviral activity of polyphenolic compounds. The viral inhibition rate (IR, %) was calculated according to Equation (1):(1) IR, %=Atv−Acv/Acd−Acv×100, where Atv is the absorbance of cells infected with HSV-1 pretreated with the studied compounds,
We calculated the selectivity index (SI) as the ratio of CC50 to IC50. Experiments were repeated three times.

[3] = tested on: 6-OHDA-treated Neuro-2a cells; assay: 6-OHDA-induced neurotoxicity model, cell viability test (MTT); type: cell-based, murine; conditions: 6-OHDA 100 µM
Protocol: Neuro-2a cells were incubated with the studied polyphenolic compounds for 1 h. Then, 100 µM of 6-hydroxydopamine 6-OHDA were added. We determined the percentage of living Neuro-2a cells after treatment with 6-OHDA (Figure 4a–d).
Figure 4 The effect of polyphenolic compounds isolated from M. amurensis heartwood on the viability of Neuro-2a cells treated with 6-OHDA (100 μM) (a–d). The viability of Neuro-2a cells treated with various compounds and 6-OHDA was measured by the MTT assay. Polyphenolic compounds isolated from M. amurensis heartwood were used at concentrations 10, 1, 0.1 μM. The data are presented as means ± SEM of three independent replicates. (*) indicate p < 0.05 versus 6-OHDA-treated cells.
After 24 h of adhesion, Neuro-2a cells (5 × 10^4 cells/mL) were treated with polyphenolic compounds at concentrations of 0.1, 1 and 10 μM for 1 h. Then, 100 µM of 6-OHDA or 1 mM of PQ (Sigma-Aldrich, St. Louis, MO, USA) were added. Cells incubated without inductors or with inductors were used as positive and negative control, respectively. Cell viability was measured after 24 h using the MTT assay.

[4] = Human alphaherpesvirus 1, 72 h, read-out: 2^−ΔCt
[5] = Human alphaherpesvirus 1, 72 h, read-out: log10

Row | Compound | virucidal activity against HSV-1 by RT-PCR (in words) (HSV-1 [1]) | virucidal activity against HSV-1 (in words) (HSV-1 [2]) | effect on viability of 6-OHDA-treated Neuro-2a cells (in words) ([3]; compound 1 µM) | Ct (HSV-1 [1]; 0.1 µg/mL) | −ΔCt (HSV-1 [1]; 0.1 µg/mL) | Ct (HSV-1 [1]; 1 µg/mL) | −ΔCt (HSV-1 [1]; 1 µg/mL) | anti-HSV-1 activity by RT-PCR (in words) (HSV-1 [1]; 10 µg/mL) | Ct (HSV-1 [1]; 10 µg/mL) | −ΔCt (HSV-1 [1]; 10 µg/mL) | activity at 0.1 µg/mL (HSV-1 [1]; [4]) [%] | activity at 1 µg/mL (HSV-1 [1]; [4]) [%] | activity at 10 µg/mL (HSV-1 [1]; [4]) [%] | log reduction at 0.1 µg/mL (HSV-1 [1]; [5]) | log reduction at 1 µg/mL (HSV-1 [1]; [5]) | log reduction at 10 µg/mL (HSV-1 [1]; [5]) | IC50 (HSV-1 [2]; Human alphaherpesvirus 1, virus pretreated with compound (virucidal), Vero cells, 100 TCID50/mL) | effect on viability of 6-OHDA-treated Neuro-2a cells (in words) ([3]; compounds at 10, 1, 0.1 µM)
1 | COc1ccc(C2(O)COc3cc(O)ccc3C2=O)c(O)c1 (racemic) [Compound 12, (±)-3-hydroxyvestitone] | did not demonstrate virucidal activity | did not show virucidal activity | increased the viability |  |  |  |  |  |  |  |  |  |  |  |  |  |  | 
2 | O=c1c(-c2ccc(O)cc2)coc2cc(O)cc(O)c12 [Compound 2, genistein] |  |  |  | 18.1 ± 2.2 | 0 | 18.4 ± 2.4 | −0.30 ± 0.03 | moderate anti-HSV-1 activity | 22.4 ± 2.4 | −4.3 ± 0.5 | 100 | 81.2 ± 11 | 5.08 ± 0.61 | 0 | 0.09 ± 0.01 | 1.3 ± 0.2 | 16.7 µg/mL and 61.9 µM | 
3 | COc1c(O)cc2occ(-c3ccc(O)cc3)c(=O)c2c1O [Compound 5, tectorigenin] | did not demonstrate virucidal activity | did not show virucidal activity |  |  |  |  |  |  |  |  |  |  |  |  |  |  |  | weak effect on cell viability
